In series [1] the target is T1, recombinant full-length WRN protein (1-1432) (Homo sapiens, UniProt Q14191).
T1 construct: recombinant full-length WRN protein (1-1432)
Put plainly: WRN unwinding activity, fluorogenic 384-well assay (Example A). As to conditions: WRN unwinding activity, 4 hr; Table 2; read-out: 4 hr UNW pIC50 (converted). The class given is biochemical. Summed up:
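Read-out is end-point unwinding of a fluorophore/quencher duplex (ex 525, em 598 nm) after 60 min with 200 μM ATP and 12 nM DNA (2× stocks), EDTA stop. Compound first sat 4 h with 200 pM WRN (2× stock) in pH 8.0 Tris buffer; four-parameter fit gives pIC50.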

Series [2] in a line: Cell culture media unbound percentage and stability by rapid equilibrium dialysis (Example C). It is filed as in vitro ADME. As to conditions: bovine, cell assay medium (RPMI-1640 with 10% fetal bovine serum), pH 7.4, rapid equilibrium dialysis, 4 hours at 37° C., read-out: Cell Culture Media Binding (% unbound). Here is the method: (§1) It was observed that the compounds of the present disclosure are bound to cell assay media to various degrees, which would affect the cellular potency analysis in Example B. To measure free drug potency, concentrations used in the cell assays were corrected with the measured free fraction determined in the cell assay media. Compounds were incubated in a rapid equilibrium dialysis (RED) at a nominal concentration of 1 μM, using a dialysis buffer of phosphate-buffered saline (PBS, 100 mM sodium phosphate+150 mM sodium chloride, pH 7.4). The test compound was spiked into the medium. Aliquots were added to the donor wells of a RED plate in triplicate, and blank PBS was added to each receiver well, at volumes recommended by the manufacturer. Plates were incubated with shaking at 200 rpm for 4 hours at 37° C. The resultant samples were analysed by LC-MS/MS using a specific and sensitive method. Results were reported as analyte:internal standard peak area ratios (PARs), and the percent unbound was calculated with the following equation:
[formula] where D=the matrix dilution factor (D=1 for media); Apparent Fu=Crec/Cdon; Crec=PAR in receiver samples; Cdon=PAR in donor samples. Percent stability was calculated by:
(§2) [formula] where Cfinal=PAR in the T=240 minute sample; Cinitial=PAR in the T=0 minute sample. Cell culture media unbound percentage and calculated free drug potency of selected compounds along with their measured potency from Example B are shown in Table 3.
On the technique in general: Equilibrium dialysis compares concentrations on both sides of a semipermeable membrane.

The subject of series [3] is SW48 human colorectal cancer cells. Put plainly: Calculated free drug potency in SW48 cell assay, corrected with media free fraction (Example C). The class given is cell-based. The note with it: Homo sapiens, SW48, SW48 pCC50 corrected with measured free fraction in cell assay media. Here is the method:
as §1, §2

Series [4] relates to SW48 human colorectal cancer cells (MSI-H cancer cells). Put plainly: SW48 cell viability, CellTiter-Glo, 120 hours (Example B). The note with it: Homo sapiens.
Experimental: SW48 human colorectal cancer cells (MSI-H cancer cells) were obtained from the American Type Culture Collection and maintained in growth medium composed of RPMI-1640 supplemented with 10% fetal bovine serum. Cells were maintained in a humidified 5% CO2 incubator at 37° C. Cell dissociation was conducted using TrypLE Select to detach cells from culture flasks. Following dissociation, cells were centrifuged briefly and resuspended in assay medium RPMI-1640+10% fetal bovine serum. Black 384-well assay plates were prepared from source plates of DMSO and compounds dissolved in DMSO prior to cell dispensation. These source plates were prepared in eleven point, 3-fold serial dilutions from 10 mM stocks stored at 4° C. Compounds and DMSO controls were dispensed into assay plates at 150 nanoliters per well from source plates using Labcyte Echo 555 or Echo 655T dispensers with Column 6 and Column 18 containing DMSO only. Cells were then seeded into prepared assay plates in 50 microliters assay medium at 250 cells per well into Columns 1 thru 17 and Columns 19-24. Assay medium without cells was added to column 18 to serve as a surrogate for 100% cell cytotoxicity. Following incubation for 120 hours in a humidified 5% CO2 incubator at 37° C., cellular ATP concentration of each well was measured and used as a surrogate of cell viability. This was performed by adding 50 microliters of CellTiter-Glo reagent to each well followed by a 10-minute incubation at room temperature. Luminescence was measured on a Synergy Neo or Synergy Neo2 multimode plate reader. Compound cytotoxic response (% C) was normalized to the robust means of column 6 (Control 1, 0% Cytotoxicity) and column 18 (Control 2, 100% Cytotoxicity) and normalized % cytotoxicity (% C) calculated. % C=100−100*((Compound−Control 2)/(Control1−Control2)). These normalized data were then used to determine a 50% cytotoxic response (CC50) using 4-parameter logistic curve model 201 in Activity Base XE:
[formula] • where A=minimum asymptote (% cytotoxicity), B=maximum asymptote (% cytotoxicity), C=Log CC50 (pCC50), D=Hill slope, and x=[inhibitor], (M).
The mark [5] stands for this setting: SW48, 120 h, read-out: SW48 pCC50, SW48 cell viability, 120 hours incubation (converted), Table 2.
[6] abbreviates: SW48, read-out: SW48 pCC50, measured potency from Example B, as repeated in Table 3 (converted).

Structures can show the parent of a compound that is named as a salt. Where two headings read alike, the source gives them in different places.

T1 sequence (Q14191 whole entry): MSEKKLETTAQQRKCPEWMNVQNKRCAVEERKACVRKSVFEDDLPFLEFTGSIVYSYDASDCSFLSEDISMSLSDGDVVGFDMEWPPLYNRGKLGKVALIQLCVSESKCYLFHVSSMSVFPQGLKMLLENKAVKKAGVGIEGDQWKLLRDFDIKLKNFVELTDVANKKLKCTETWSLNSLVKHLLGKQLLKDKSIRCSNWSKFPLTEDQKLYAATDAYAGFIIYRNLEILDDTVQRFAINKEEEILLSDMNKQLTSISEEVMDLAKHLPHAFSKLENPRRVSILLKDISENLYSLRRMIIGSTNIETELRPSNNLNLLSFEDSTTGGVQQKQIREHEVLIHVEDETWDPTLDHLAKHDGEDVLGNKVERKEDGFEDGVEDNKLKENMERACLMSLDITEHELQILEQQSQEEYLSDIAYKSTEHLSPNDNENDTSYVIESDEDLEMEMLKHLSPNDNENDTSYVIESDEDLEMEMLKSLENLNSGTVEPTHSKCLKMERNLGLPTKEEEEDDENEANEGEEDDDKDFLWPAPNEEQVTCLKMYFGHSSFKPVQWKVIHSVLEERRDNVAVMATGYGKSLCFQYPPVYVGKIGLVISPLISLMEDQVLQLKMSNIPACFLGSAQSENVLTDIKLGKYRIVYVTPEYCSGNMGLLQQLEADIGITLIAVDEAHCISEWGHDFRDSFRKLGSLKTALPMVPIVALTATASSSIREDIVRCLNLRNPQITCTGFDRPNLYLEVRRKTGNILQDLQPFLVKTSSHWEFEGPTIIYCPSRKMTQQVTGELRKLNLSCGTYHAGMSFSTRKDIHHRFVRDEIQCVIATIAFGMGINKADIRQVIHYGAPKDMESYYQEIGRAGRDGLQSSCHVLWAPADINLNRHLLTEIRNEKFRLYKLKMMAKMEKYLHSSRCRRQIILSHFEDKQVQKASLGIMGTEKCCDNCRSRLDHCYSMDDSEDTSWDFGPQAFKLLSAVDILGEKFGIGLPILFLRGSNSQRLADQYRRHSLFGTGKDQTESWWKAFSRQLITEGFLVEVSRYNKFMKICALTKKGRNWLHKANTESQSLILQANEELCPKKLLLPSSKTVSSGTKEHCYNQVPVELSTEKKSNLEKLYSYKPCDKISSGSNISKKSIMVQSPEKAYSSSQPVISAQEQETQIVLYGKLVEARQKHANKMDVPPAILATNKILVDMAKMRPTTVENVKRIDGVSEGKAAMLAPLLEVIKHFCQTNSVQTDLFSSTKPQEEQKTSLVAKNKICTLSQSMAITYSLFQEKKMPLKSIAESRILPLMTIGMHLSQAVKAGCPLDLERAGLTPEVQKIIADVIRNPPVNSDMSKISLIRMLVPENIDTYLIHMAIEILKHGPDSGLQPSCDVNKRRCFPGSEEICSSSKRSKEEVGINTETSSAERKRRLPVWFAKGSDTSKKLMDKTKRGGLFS

`Cc1nc2cc(S(=O)(=O)N(C)c3ccc([C@H]4C[C@@H](OCC(F)F)C[C@@H](C(=O)Nc5ccc(C(F)(F)F)cc5F)[C@@H]4C(=O)O)cc3)ccc2n1C` (relative stereo) [Example 159, rel-(1R,2R,4R,6S)-4-(2,2-difluoroethoxy)-2-((2-fluoro-4-(trifluoromethyl)phenyl)carbamoyl)-6-(4-((N,1,2-trimethyl-1H-benzo[d]imidazole)-5-sulfonamido)phenyl)cyclohexane-1-carboxylic acid]: the IC50 in series [1] was 2.51 nM. Also, the fraction unbound at 4 h, 1 µM in series [2] is 0.0991. In addition, the results for the CC50 in series [3], in series [4] (setting [5]) and in series [4] (setting [6]) were 20 nM, 200 nM and 200 nM, respectively.

With `Cc1nc2cc(S(=O)(=O)N(C)c3ccc([C@H]4CCC[C@@H](C(=O)Nc5ccc(C(F)(F)F)cc5F)[C@@H]4C(=O)O)nc3)ccc2n1C` (relative stereo) [Example 161, rel-(1R,2R,6S)-2-((2-fluoro-4-(trifluoromethyl)phenyl)carbamoyl)-6-(5-((N,1,2-trimethyl-1H-benzo[d]imidazole)-5-sulfonamido)pyridin-2-yl)cyclohexane-1-carboxylic acid], the IC50 in series [1] is 2.51 nM. Besides, the fraction unbound at 4 h, 1 µM in series [2] is 0.0481. Further, the CC50 is 38 nM in series [3], 794 nM in series [4] (setting [5]) and 794 nM in series [4] (setting [6]).

For `Cc1nc2cc(S(=O)(=O)N(C)c3ccc([C@@H]4CCC[C@H](C(=O)Nc5ccc(C(F)(F)F)cn5)[C@H]4C(=O)O)cc3)ccc2n1C` (relative stereo) [Example 168, rel-(1R,2R,6S)-2-((5-(trifluoromethyl)pyridin-2-yl)carbamoyl)-6-(4-((N,1,2-trimethyl-1H-benzo[d]imidazole)-5-sulfonamido)phenyl)cyclohexane-1-carboxylic acid], the IC50 in series [1] is 2.51 nM. Besides, the fraction unbound at 4 h, 1 µM in series [2] worked out at 0.0585. Also, the CC50 was 37.2 nM in series [3], 631 nM in series [4] (setting [5]) and 631 nM in series [4] (setting [6]).

For the compound `Cc1nc2cc(S(=O)(=O)N(C)c3ccc([C@@H]4CCC[C@H](COc5ccc(C(F)(F)F)cc5)[C@H]4C(=O)O)cc3)cc([C@@H]3CCCNC3)c2n1C` (relative stereo) [Example 207, rel-(1R,2R,6S)-2-((4-(trifluoromethyl)phenoxy)methyl)-6-(4-((N,1,2-trimethyl-7-((R)-piperidin-3-yl)-1H-benzo[d]imidazole)-5-sulfonamido)phenyl)cyclohexane-1-carboxylic acid, hydrochloride], in series [1], the IC50 is 1.58 nM. The fraction unbound at 4 h, 1 µM in series [2] came out at 0.0138. Further, the values for the CC50 in series [3], in series [4] (setting [5]) and in series [4] (setting [6]) were 110 nM, 7940 nM and 7940 nM, respectively.

Turning to `Cc1nc2cc(S(=O)(=O)N(C)c3ccc([C@H]4CC[C@@H](C)[C@@H](C(=O)Nc5ccc(C(F)(F)F)cc5F)[C@@H]4C(=O)O)cc3)ccc2n1C` (relative stereo) [Example 235, rel-(1R,2R,3R,6S)-2-((2-fluoro-4-(trifluoromethyl)phenyl)carbamoyl)-3-methyl-6-(4-((N,1,2-trimethyl-1H-benzo[d]imidazole)-5-sulfonamido)phenyl)cyclohexane-1-carboxylic acid], the IC50 in series [1] was 2 nM. In addition, the fraction unbound at 4 h, 1 µM in series [2] turned out to be 0.0332. Also, the CC50 in series [3] was 8.32 nM; in series [4] (setting [5]) it was 251 nM; in series [4] (setting [6]), 251 nM.

Take `Cc1nc2cc(S(=O)(=O)N(C)c3ccc([C@H]4CCC[C@@H](C(=O)Nc5ccc(C(F)(F)F)cc5F)[C@@H]4C(=O)O)cc3)cc([C@H]3CCCNC3)c2n1C` (relative stereo) [Example 269, (1R,2R,6S)-2-((2-fluoro-4-(trifluoromethyl)phenyl)carbamoyl)-6-(4-((N,1,2-trimethyl-7-((R*)-piperidin-3-yl)-1H-benzo[d]imidazole)-5-sulfonamido)phenyl)cyclohexane-1-carboxylic acid hydrochloride]: in series [1], the IC50 is 0.794 nM. The fraction unbound at 4 h, 1 µM in series [2] came to 0.257. Also, the CC50 is 646 nM in series [3], 2510 nM in series [4] (setting [5]) and 2510 nM in series [4] (setting [6]).

With `Cc1nc2cc(S(=O)(=O)N(C)c3ccc([C@H]4CCC[C@@H](C(=O)Nc5ccc(C(F)(F)F)cc5F)[C@@H]4C(=O)O)cc3)cc([C@H]3CCCN(C)C3)c2n1C` (relative stereo) [Example 271, (1R,2R,6S)-2-((2-fluoro-4-(trifluoromethyl)phenyl)carbamoyl)-6-(4-((N,1,2-trimethyl-7-((R*)-1-methylpiperidin-3-yl)-1H-benzo[d]imidazole)-5-sulfonamido)phenyl)cyclohexane-1-carboxylic acid], the IC50 in series [1] is 1.58 nM. For the same compound, the fraction unbound at 4 h, 1 µM in series [2] amounted to 0.224. Further, the values for the CC50 in series [3], in series [4] (setting [5]) and in series [4] (setting [6]) were 17.8 nM, 79.4 nM and 79.4 nM, respectively.

Turning to `Cc1nc2cc(S(=O)(=O)N(C)c3ccc([C@H]4C[C@@H](O[C@@H]5CCOC5)C[C@@H](C(=O)Nc5ccc(C(F)(F)F)cc5F)[C@@H]4C(=O)O)cc3)ccc2n1C` (relative stereo) [Example 321, (1R*,2R*,4R*,6S*)-2-((2-fluoro-4-(trifluoromethyl)phenyl)carbamoyl)-4-(((R)-tetrahydrofuran-3-yl)oxy)-6-(4-((N,1,2-trimethyl-1H-benzo[d]imidazole)-5-sulfonamido)phenyl)cyclohexane-1-carboxylic acid], in series [1], the IC50 was 1.58 nM. The fraction unbound at 4 h, 1 µM in series [2] was 0.16. For the same compound, the CC50 in series [3] was 31.6 nM; in series [4] (setting [5]) it was 200 nM; in series [4] (setting [6]) it was 200 nM.

As to `Cc1nc2cc(S(=O)(=O)N(C)c3ccc([C@H]4C[C@@H](OC[C@H]5COCCO5)C[C@@H](C(=O)Nc5ccc(C(F)(F)F)cc5F)[C@@H]4C(=O)O)cc3)ccc2n1C` (relative stereo) [Example 327, (1R*,2R*,4R*,6S*)-4-(((R)-1,4-dioxan-2-yl)methoxy)-2-((2-fluoro-4-(trifluoromethyl)phenyl)carbamoyl)-6-(4-((N,1,2-trimethyl-1H-benzo[d]imidazole)-5-sulfonamido)phenyl)cyclohexane-1-carboxylic acid], the IC50 in series [1] was 2.51 nM. For the same compound, the fraction unbound at 4 h, 1 µM in series [2] stood at 0.296. Further, the figures for the CC50 in series [3], in series [4] (setting [5]) and in series [4] (setting [6]) were 58.9 nM, 200 nM and 200 nM, respectively.

For the compound `COC12CC(CO[C@@H]3C[C@H](c4ccc(N(C)S(=O)(=O)c5ccc6c(c5)nc(C)n6C)cc4)[C@@H](C(=O)O)[C@H](C(=O)Nc4ccc(C(F)(F)F)cc4F)C3)(C1)C2` (relative stereo) [Example 332, rel-(1R,2R,4R,6S)-2-((2-fluoro-4-(trifluoromethyl)phenyl)carbamoyl)-4-((3-methoxybicyclo[1.1.1]pentan-1-yl)methoxy)-6-(4-((N,1,2-trimethyl-1H-benzo[d]imidazole)-5-sulfonamido)phenyl)cyclohexane-1-carboxylic acid], in series [1], the IC50 was 3.98 nM. In addition, the fraction unbound at 4 h, 1 µM in series [2] came to 0.122. Besides, the CC50 in series [3] was 12.3 nM; in series [4] (setting [5]), 100 nM; in series [4] (setting [6]) it was 100 nM.

Source of the values: patent publication US12662451B2, “Chemical compounds and uses thereof” (GLAXOSMITHKLINE INTELLECTUAL PROPERTY (NO.4) LIMITED, priority 2023, dated 2026).
